According to patent US20210155990A1, “NF-KB REGULATED GENE EXPRESSION ASSAY FOR ASSESSING EFFICACY OF MALT1 INHIBITORS” (Janssen Pharmaceutica NV, priority 2019, published 2021):

How the values were obtained:
[1] = test system: NF-κB proteins (p50 and RelB) in CLL cells; conditions: CLL cells treated in vitro; ELISA; cited from earlier work
[2] = test system: NF-κB2, TNFSF10, APOE, PYCARD expression; experiment: Gene expression in T-cells and PBMCs purified from NHL blood without stimulation (Example 9); format: cell-based, human; conditions: no stimulation, 24 hours
Description: Peripheral blood was collected from five NHL patients, and the peripheral blood was allowed to stand overnight. Then, the peripheral blood was treated for 24 hours with a MALT inhibitor or DMSO control. PBMCs were purified from the unstimulated blood using a ficoll density gradient and T-cells were purified using CD3 Beads (Miltenyi) using the manufacturers protocol. Purified cells were lysed in RLTplus (Qiagen) and RNA was extracted from the purified cells using an AllPrep kit (Qiagen). Gene expression was measured using 100 ng of RNA in the Pan-Cancer Immune Profiling kit (NanoString) according to the manufacturer's instructions. Gene expression signatures were compared between the MALT inhibitor treated and DMSO treated samples.

[3] = test system: MALT1 regulated gene expression in NHL whole blood; conditions: 200 μM 24 h, anti-CD3/CD28 four hours
Description: (§4) Peripheral blood was collected from three NHL and two CLL patients. […] Prior to stimulation and following stimulation, the treated blood was transferred into a PAXgene tube (Qiagen; Hilden, Germany) and RNA was extracted using the PAXgene RNA kit. Gene expression was measured using 100 ng of RNA extracted from the whole blood in the Pan-Cancer Immune Profiling kit (NanoString; Seattle, Wash.) according to the manufacturer's instructions.

[4] = test system: IL2, an NF-κB regulated gene; experiment: IL2 expression in purified T-cells and PBMCs from NHL blood (Example 8); format: cell-based, human; conditions: T-cells and PBMC from NHL blood; 24 hours; anti-CD3/CD28 six hours
Description: The effect of a MALT inhibitor was analyzed utilizing gene expression signatures from purified T-cells and PBMCs from Non-Hodgkin's lymphoma patients. Peripheral blood was collected from five NHL patients, and the peripheral blood was allowed to stand overnight. Then, the peripheral blood was treated for 24 hours with a MALT inhibitor or DMSO control. The blood was then stimulated with monoclonal antibodies against CD3 and CD28 for six hours. Prior to stimulation and following stimulation, PBMC were purified from the treated blood using a ficoll density gradient and T-cells were purified using CD3 Beads (Miltenyi) using the manufacturers protocol. Purified cells were lysed in RLTplus (Qiagen) and RNA was extracted from the purified cells using an AllPrepkit (Qiagen). Gene expression was measured using 100 ng of RNA in the Pan-Cancer Immune Profiling kit (NanoString) according to the manufacturer's instructions.

[5] = test system: NF-κB (p50) nuclear translocation in T cells; experiment: NF-kB nuclear translocation in T cells from NHL whole blood by imaging flow cytometry (Example 4); format: cell-based, human
Description: (§1) The solution was mixed by pipetting with a 1 mL pipette. The plates were incubated in a humidified incubator at 37° C. with 5% CO2 for an additional 6 hours.
Frozen or fresh cells treated with the experimental conditions were obtained. For example, T cells in blood samples could be activated and the PBMCs containing the activated T cells could be isolated using the method described in Example 1. Alternatively, PBMCs in blood samples could be activated and subject to the imaging flow cytometry analysis directly without isolation. If the samples were whole blood, a minimum of 1 mL of blood was used for each test in this experiment. However, less than 1 mL whole blood can also be used in the assay. […]
The samples were imaged on an AMNIS® […]® X Mark II imaging flow cytometer (MilliporeSigma, Burlington, Mass.) immediately, using 60× magnification, and the data was analyzed in IDEAS software using an internalization module, e.g., to evaluate frequency of CD4+ and CD8+ T cells or CLL cells with nuclear enrichment of p50.
The next day, the mixture samples were treated with anti-CD3 and anti-CD28 stimulatory antibodies following a procedure as that described in Example 1. […] Samples were analyzed on ImageStreamX to evaluate NF-κB nuclear localization in the CD4 and the CD8 positive T cells.

[6] = test system: proteases, caspases, protein kinases, and G-protein-coupled receptors; experiment: Binding inhibition panel at single dose; conditions: single dose of either 1 μM or 10 μM
[7] = test system: MALT1 regulated gene expression in NHL whole blood; conditions: 100 μM 2 h, PMA-stimulated samples
Description: Then, aliquots were stimulated with CD3 and CD28 antibodies (1 ug/ml each), PMA (20 ng/ml) and Ionomycin (1 μg/mL), or unstimulated (PBS) for four hours. Following stimulation, the treated blood was transferred into a PAXgene tube (Qiagen; Hilden, Germany) and RNA was extracted using the PAXgene RNA kit.
Gene expression was measured using 100 ng of RNA extracted from the whole blood in the Pan-Cancer Immune Profiling kit (NanoString; Seattle, Wash.) according to the manufacturer's instructions. Gene expression was normalized across samples using NanoString nSolver software. […] Briefly, log2-scaled, normalized NanoString counts were fit to a linear model (which incorporated the patient of origin) and moderated t-statistics, along with the associated Benjamini-Hochberg (BH) corrected p-values, were computed by empirical Bayes moderation of the standard errors towards a common value.

DLBCL cell lines = experiment: Growth of DLBCL cell lines in vitro (nonclinical studies); format: cell-based
[8] = test system: NF-κB (p50) nuclear translocation in B (CLL) cells; experiment: NF-κB nuclear translocation in B cells from CLL PBMCs, anti-IgM 6 hours (Example 6); format: cell-based, human; conditions: CLL PBMC, overnight compound
Description: Cells were then treated with anti-IgM or left untreated for 6 hours. After stimulation, PBMC were fixed using CytoFix buffer and permeabilized using 0.1% Triton X-100 solution. Cells were then stained with anti-CD19 to label B (CLL) cells, anti-CD4 and anti-CD8 to label T cells, Hoechst 33342 to label nuclei, and anti-p105/p50 to label NF-kB subunit. Samples were analyzed on ImageStreamX to evaluate NF-kB nuclear localization in B cells or T cells. […] Statistical significance was determined using Student's t-test in Microsoft Excel.

[9] = test system: T cells (CD4+ and CD8+) in normal blood; experiment: CD69 expression on T cells, normal peripheral whole blood, anti-CD3/anti-CD28 stimulation (IFC); format: cell-based, human; conditions: 200 μM overnight, anti-CD3/anti-CD28 6 hours
Description: (§2) Both tubes were mixed well. The treated blood mixture was transferred at 3 mL per well to a 6-well polystyrene culture plate (Falcon, cat. #353046) and incubated overnight in a humidified incubator at 37° C. with 5% CO2.
as §1
(§3) The next day, blood was treated with anti-CD3 and anti-CD28 stimulatory antibodies for 6 hours as described in Example 1 or left untreated. After treatment with the stimulatory antibodies, the red blood cells were lysed using multi-species lysis buffer, and the white blood cells were stained with anti-CD4 and anti-CD8 antibodies to label T cells and an anti-CD69 antibody to measure early T cell activation. Frequency of CD69-positive T cells (CD4+ and CD8+) was measured by IFC.

[10] = test system: NF-κB (p50) nuclear translocation in CD19-positive B (CLL) cells; experiment: NF-κB nuclear translocation in B cells from CLL PBMCs, anti-IgM 30 minutes (Example 5); format: cell-based, human; conditions: 6 hours compound
Description: Alternatively, B cells can also be activated by beads coated with anti-IgM antibody. After the stimulation, PBMCs were fixed using CytoFix buffer and permeabilized using 0.1% Triton X-100 solution. Cells were then stained with anti-CD19 to label B (CLL) cells, Hoechst 33342 to label nuclei, and anti-p105/p50 to label NF-κB subunit. Samples were analyzed on ImageStreamX to evaluate NF-κB nuclear localization in the CD19-positive cells. […] Statistical significance was determined using Student's t-test in Microsoft Excel.

[11] = Oral bioavailability (description)
[12] = test system: MALT1 regulated gene expression in CLL whole blood; conditions: 200 μM 24 h, anti-CD3/CD28 four hours
Description: as §4

[13] = test system: T cells (CD4+ and CD8+) in NHL blood; experiment: CD69 expression on T cells, NHL peripheral whole blood, anti-CD3/anti-CD28 stimulation (IFC); format: cell-based, human; conditions: 200 μM overnight, anti-CD3/anti-CD28 6 hours
Description: as §2, §1, §3

Compound | nuclear translocation of NF-κB proteins (p50 and RelB) [1] | APOE expression ([2]; purified PBMCs) | PYCARD expression ([2]; purified PBMCs) | NF-κB2 expression ([2]; purified T-cells) | TNFSF10 expression ([2]; purified T-cells) | stimulation induced upregulation of CXCL10 [3] | stimulation induced upregulation of IL2 [4] | NFκB nuclear translocation in T cells (canonical NF-κB signaling) ([5]; CD3/CD28 stimulation, dosage dependent) | IC50 ([5]; Homo sapiens, T-cell, overnight, CD3/CD28 stimulation 6 h, read-out: IC50, NFκB nuclear translocation in T cells) [µM] | binding inhibition of proteases, caspases, protein kinases, and G-protein-coupled receptors [6] | gene expression of ICOS, POU2F2, CCR4, and CTLA4 [7] | genes upregulated [7] | growth of CD79b-mutant DLBCL cell lines (DLBCL cell lines) | growth of ibrutinib-resistant DLBCL cell lines harboring BTK C481S or CARD11 mutations (DLBCL cell lines) | NF-κB nuclear translocation in B cells activated by anti-IgM [8] | surface expression of CD69 on CD4+ and CD8+ T cells [9] | NF-κB nuclear translocation in activated B cells [10] | oral bioavailability [11] | stimulation induced upregulation of CXCL10 [12] | surface expression of CD69 on T cells [13]
COCCOc1nc(-c2ccc(Cl)c(Cl)c2)n(-c2ccc(NC(=O)CCl)cc2)n1 [MI-2] | suppress | – | – | – | – | – | – | – | – | – | – | – | – | – | – | – | – | – | – | –
O=C(Nc1ccnc(C(F)(F)F)c1)c1cnn(-c2cccc3c(=O)[nH]ccc23)c1C(F)(F)F [Compound A, 1-(1-oxo-1,2 dihydroisoquinolin-5-yl)-5 (trifluoromethyl)-N-[2 (trifluoromethyl)pyridin-4 yl]-1H-pyrazole-4 carboxamide] | – | repressed | repressed | repressed | repressed | repressed | repressed | completely blocked | ~9.5 | did not show significant binding inhibition | downregulated | no genes were significantly upregulated | inhibit growth | inhibit growth | inhibited | not affected | inhibited | orally bioavailable | repressed | significantly inhibited
